Data set [1] has as its system OE33 xenografts. Put plainly: Growth of Barrett's esophageal adenocarcinoma (BEAC) OE33 xenografts in nude mice. It counts as in vivo. As to conditions: 75 mg/kg/day orogastric feeding, 8 days, versus vehicle control, listed as pro-2-ME2. The procedure:
We injected ˜2.0×10^6 OE33 cells subcutaneously into the left hind leg flank of each nude mice […] for the development of tumor. The mice were divided into two groups (two mice per group) with a control group and Pro-2-ME2 treatment group. After forming palpable tumors, the nude mice bearing xenografts of OE33 cells were given daily pro-2-ME2 doses (75 mg/kg/day) by orogastric feeding or vehicle (control). Pro-2-ME2 was dissolved in 500 μl of saline water. We used 500 μl of saline water as a vehicle control. Tumor growth was monitored for 8 days by measuring two perpendicular diameters twice weekly. Tumor volume was calculated according to the formula V=a×b^2/2, where a and b are the largest and smallest diameters, respectively.

The nature of data set [2]: Rat plasma pharmacokinetics of 2-ME2 after intravenous and oral dosing (cannulated rat model). The following applies: for Bioavailability: AUC through 480 minutes. It counts as in vivo, Sprague Dawley rats. The procedure:
The main compound of the present invention (2ME2-PD) and the native compound (8R,9S,13S,14S,17S)-2-methoxy-13-methyl-7,8,9,11,12,13,14,15,16,17-decahydro-6H-cyclopenta[a]phenanthren-17-ol (2-ME2) were dissolved independently in 0.1 M Captisol® at concentrations between 10 mg/mL and 21 mg/mL. The solutions were sterile filtered through 0.2 micron filters prior to use.
Animal studies were approved and conducted in accordance with the guidelines of the Institutional Animal Care and Use Committee. A cannulated rat model was used to study the intravenous (iv) and oral absorption 2-ME2 and 2-ME2-PD.
Sprague Dawley rats (male, 250-300 gram, Charles River Laboratories) were implanted with carotid artery, and jugular and/or femoral vein catheters. These studies were automated with the animals connected to the Culex Automated Pharmacology System allowing for direct comparison of pharmacokinetic behavior between the orally and iv administered compounds in the same animal. Following surgery, the animals were connected to the Culex and allowed to recover and acclimate. Fasted animals were dosed intravenously and orally with solutions of 2-ME2-PD in 0.1 M Captisol® (CyDex Pharmaceuticals, Inc) and 2-ME2 parent in 0.2 M HP-13-CD (Sigma-Aldrich).
Oral doses were given via gavage to the animal under light anesthesia. Blood was sampled at times ranging from five to 1440 minutes into heparinized vials stored on the chilled fraction collector, and remained there until sampling was complete. Blood samples were processed to plasma via centrifugation and stored at −80° C. until analysis for 2-ME2-PD, 2-ME2 and associated metabolite concentration by liquid chromatography-mass spectrometry (LC-MS/MS). Bioanalytical methods for the 2-ME2-PD and 2-ME2 analysis were modified from those of Lakhani et. al. Quantitation was made relative to deuterated internal standards.
Pharmacokinetic analysis of the resulting plasma concentration time data was performed using PK Solution software (Summit PK). Results for the studies conducted are illustrated in FIG. 1 and Table II (below). For oral doses of 2-ME2, no compound was found in plasma at all time points studied (<2 ng/mL LOQ). All samples from times greater than 480 minutes had 2-ME2 levels that were below the limit of quantitation.

The conditions of data set [3]: Reference 13, cited from earlier work.
For data set [4] the following is noted: oxidation of 2-ME2 at the 17 position; References 3, 13 and 19; cited from earlier work.
Where [5] appears, read: plasma 2-ME2, 2-ME2-PD intravenous 10 mg/kg.
The mark [6] stands for this setting: plasma 2-ME2, 2-ME2-PD oral 20 mg/kg, average of two animals.
Setting [7] is: plasma 2-ME2, 2-ME2-PD oral 31.5 mg/kg.
Setting [8] is: plasma 2-ME2, 2-ME2 intravenous 5.21 mg/kg.

Molecules are shown by their SMILES.

A word on the Cmax: it is the maximum level reached in the sampled fluid or tissue. Turning to `COc1cc2c(cc1OCOP(=O)([O-])[O-])CC[C@@H]1[C@@H]2CC[C@]2(C)[C@@H](OC(C)=O)CC[C@@H]12.[Na+].[Na+]` [2-ME2-PD, disodium(((8R,9S,13S,14S,17S)-17-acetoxy-2-methoxy-13-methyl-7,8,9,11,12,13,14,15,16,17-decahydro-6H-cyclopenta[a]phenanthren-3-yl)oxy)methyl phosphate], the “growth of OE33 tumor implants (tumor volume)” value in data set [1] was “significantly inhibited”. The Bioavailability is 21.8% in data set [2] (2-ME2-PD intravenous 10 mg/kg, relative to 2ME2 iv and corrected for dose); 4.4% in data set [2] (2-ME2-PD oral 20 mg/kg, relative to 2ME2 iv and corrected for dose, average of two animals); 4.9% in data set [2] (2-ME2-PD oral 31.5 mg/kg, relative to 2ME2 iv and corrected for dose). The “absolute bioavailabilities from oral administration” value in data set [2] (oral 2-ME2 prodrug, 0-480 minutes) was 4-5%. Moreover, the Cmax in data set [2] (setting [5]) amounted to 121 ng/mL; in data set [2] (setting [6]) it was 8.4 ng/mL; in data set [2] (setting [7]), 9.9 ng/mL. Also, the T1/2 in data set [2] (setting [5]) was determined as 4.37 h; in data set [2] (setting [6]), 13.4 h; in data set [2] (setting [7]), 6.85 h. Moreover, the AUCt-480 was 4967 ng·min/mL in data set [2] (plasma 2-ME2, 2-ME2-PD intravenous 10 mg/kg (corrected dose 6.06 mg/kg)); 2006 ng·min/mL in data set [2] (plasma 2-ME2, 2-ME2-PD oral 20 mg/kg (corrected dose 12.13 mg/kg), average of two animals); 3516 ng·min/mL in data set [2] (plasma 2-ME2, 2-ME2-PD oral 31.5 mg/kg (corrected dose 19.11 mg/kg)).

In the case of `COc1cc2c(cc1O)CC[C@@H]1[C@@H]2CC[C@]2(C)[C@@H](O)CC[C@@H]12` [2-ME2], in data set [3], the “orally administered dose of 2-ME2 recovered in the urine” value is listed as roughly 1%. For the same molecule, in data set [3] (metabolites, animal and human studies), the “fraction of orally administered 2-ME2 dose recovered in the urine as metabolites” value is “less than 1%”. Besides, the “fraction of orally administered 2-ME2 dose recovered in the urine” value in data set [3] (unchanged 2-ME2, animal and human studies) is recorded as “less than 0.1%”. The Bioavailability in data set [2] (2-ME2 intravenous 5.21 mg/kg (reference)) amounted to 100%. In addition, the “2-ME2 in plasma at all time points (LOQ)” value in data set [2] (oral doses of 2-ME2 (5.21 mg/kg), no compound found) is recorded as less than 2 ng/mL. In data set [2] (setting [8]), this molecule yielded an AUCt-480 of 19253 ng·min/mL, a maximum concentration (Cmax) of 1221 ng/mL and a T1/2 of 0.983 h.

In the case of `COc1cc2c(cc1O)CC[C@@H]1[C@@H]2CC[C@]2(C)C(=O)CC[C@@H]12` [2-methoxyestrone], the “loss in activity in vitro versus 2-ME2” value in data set [4] is reported as 10-to 100 fold.

The record behind these values is patent US20120225849A1, “2-Methoxyestradiol (2-ME2) Prodrug with Enhanced Bioavailability for Prophylaxis or Treatment of Cancerous or Non-Cancerous Condition” (The University of Kansas, priority 2011, published 2012).
